Measured values published in the supplement of paper PMC10307832.

What was measured:
Test in all cases: relative viability (nuclei count vs DMSO), 5 days (fraction); higher = more cells survive
Seliciclib + Linsitinib = compound: CC[C@H](CO)Nc1nc(NCc2ccccc2)c2ncn(C(C)C)c2n1 [Seliciclib] + C[C@]1(O)C[C@@H](c2nc(-c3ccc4ccc(-c5ccccc5)nc4c3)c3c(N)nccn32)C1 [Linsitinib] (partner 1 µM)
Summary of the method: (§1)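 One day after seeding in 1536-well plates, lung cancer cell lines were dosed by pin tool. Dosing was either single-drug or a fixed anchor-drug dose plus five library-drug doses (not always all listed) in √10 steps. After 5 days, nuclei were stained in one fix-and-stain step and counted on 4× images, and relative viability is the nuclei count of treated wells over that of vehicle wells, given as the median of duplicate plates.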

Seliciclib + Pemetrexed = compound: CC[C@H](CO)Nc1nc(NCc2ccccc2)c2ncn(C(C)C)c2n1 [Seliciclib] + Nc1nc2[nH]cc(CCc3ccc(C(=O)N[C@@H](CCC(=O)O)C(=O)O)cc3)c2c(=O)[nH]1 [Pemetrexed] (partner 0.2 µM)
Summary of the method: as §1

Seliciclib + Vorinostat = compound: CC[C@H](CO)Nc1nc(NCc2ccccc2)c2ncn(C(C)C)c2n1 [Seliciclib] + O=C(CCCCCCC(=O)Nc1ccccc1)NO [Vorinostat] (partner 1 µM)
Summary of the method: as §1

Seliciclib + Olaparib = compound: CC[C@H](CO)Nc1nc(NCc2ccccc2)c2ncn(C(C)C)c2n1 [Seliciclib] + O=C(c1cc(Cc2n[nH]c(=O)c3ccccc23)ccc1F)N1CCN(C(=O)C2CC2)CC1 [Olaparib] (partner 8 µM)
Summary of the method: as §1

Cell Line | relative viability (Seliciclib + Linsitinib; first compound 0.08 µM) | relative viability (Seliciclib + Linsitinib; first compound 0.253 µM) | relative viability (Seliciclib + Linsitinib; first compound 0.8 µM) | relative viability (Seliciclib + Linsitinib; first compound 2.53 µM) | relative viability (Seliciclib + Linsitinib; first compound 8 µM) | relative viability (Seliciclib + Pemetrexed; first compound 0.08 µM) | relative viability (Seliciclib + Pemetrexed; first compound 0.253 µM) | relative viability (Seliciclib + Pemetrexed; first compound 0.8 µM) | relative viability (Seliciclib + Pemetrexed; first compound 2.53 µM) | relative viability (Seliciclib + Pemetrexed; first compound 8 µM) | relative viability (Seliciclib + Vorinostat; first compound 0.08 µM) | relative viability (Seliciclib + Vorinostat; first compound 0.253 µM) | relative viability (Seliciclib + Vorinostat; first compound 0.8 µM) | relative viability (Seliciclib + Vorinostat; first compound 2.53 µM) | relative viability (Seliciclib + Vorinostat; first compound 8 µM) | relative viability (Seliciclib + Olaparib; first compound 0.08 µM) | relative viability (Seliciclib + Olaparib; first compound 0.253 µM) | relative viability (Seliciclib + Olaparib; first compound 0.8 µM) | relative viability (Seliciclib + Olaparib; first compound 2.53 µM) | relative viability (Seliciclib + Olaparib; first compound 8 µM)
HCC-366 | 0.538 | 0.448 | 0.557 | 0.836 | 0.36 | 0.153 | 0.327 | 0.212 | 0.295 | 0.241 | 0.317 | 0.467 | 0.377 | 0.212 | 0.164 | 0.335 | 0.422 | 0.35 | 0.456 | 0.234
HCC-827 | 0.927 | 1 | 0.892 | 0.919 | 0.845 | 0.251 | 0.241 | 0.258 | 0.297 | 0.258 | 0.845 | 0.951 | 0.912 | 0.77 | 0.756 | 0.623 | 0.66 | 0.644 | 0.612 | 0.624
HOP-62 | 1.04 | 0.935 | 0.891 | 0.834 | 0.879 | 0.285 | 0.326 | 0.383 | 0.339 | 0.351 | 0.65 | 0.623 | 0.732 | 0.479 | 0.437 | 0.445 | 0.398 | 0.299 | 0.264 | 0.391
IA-LM | 0.644 | 0.793 | 0.602 | 0.709 | 0.611 | – | – | – | – | – | 0.895 | 0.984 | 0.848 | 0.935 | 0.867 | 0.8 | 0.973 | 0.879 | 0.72 | 0.745
LC-2-ad | 0.884 | 0.94 | 0.756 | 0.827 | 0.607 | 0.264 | 0.25 | 0.285 | 0.279 | 0.248 | 0.7 | 0.68 | 0.671 | 0.445 | 0.528 | 0.64 | 0.759 | 0.681 | 0.794 | 0.638
LCLC-97TM1 | 0.162 | 0.181 | 0.205 | – | 0.18 | 0.206 | 0.148 | 0.192 | 0.135 | 0.135 | 0.803 | 0.706 | 0.82 | 0.106 | 0.222 | 0.453 | 0.47 | 0.322 | 0.381 | 0.265
LCLC-103H | 1.17 | 0.973 | 1.02 | 1.02 | 0.849 | 0.377 | 0.439 | 0.514 | 0.456 | 0.494 | 0.753 | 0.764 | 0.733 | 0.448 | 0.68 | 0.671 | 0.81 | 0.748 | 0.774 | 0.704
LK-2 | 0.74 | 0.462 | 0.523 | 0.676 | 0.274 | 0.25 | 0.274 | 0.266 | 0.166 | 0.195 | 0.33 | 0.253 | 0.335 | 0.242 | 0.204 | 0.817 | 0.723 | 0.739 | 0.398 | 0.718
LOU-NH91 | 0.878 | 0.889 | 0.881 | 1.01 | 0.693 | – | 0.394 | 0.367 | 0.44 | 0.393 | – | 0.863 | 0.803 | 0.778 | 0.613 | – | 0.93 | 0.891 | 0.925 | 0.782
